Assay results reported in the NIST ThermoML archive (doi:10.1021/je0604481).
± gives the expanded uncertainty stated by the source.

Experiment: mn = molality of the nth substance listed, in mol/kg
Details: Liquid; for viscosity: Capillary tube (Ostwald / Ubbelohde) method; for mass density: Constant-volume piezometry

In the case of `O=S(=O)([O-])[O-].[Mg+2]` [magnesium sulfate] + O, the viscosity (348.15 K, 100 kPa, m1 = 2.291) is reported as 1.503 ± 0.024 mPa·s, the mass density (348.15 K, 101 kPa, m1 = 0.084) is reported as 984.5 ± 0.61 kg/m3 and the mass density (348.15 K, 101 kPa, m1 = 0.261) is reported as 1004.83 ± 0.62 kg/m3. For the same molecule, the mass density (348.15 K, 101 kPa, m1 = 0.469) was 1028.4 ± 0.64 kg/m3, the mass density (348.15 K, 101 kPa, m1 = 0.841) was 1069.05 ± 0.67 kg/m3 and the viscosity (348.15 K, 10000 kPa, m1 = 0.437) was 0.4948 ± 0.0082 mPa·s. The viscosity (348.15 K, 10000 kPa, m1 = 2.291) was 1.514 ± 0.024 mPa·s, the viscosity (348.15 K, 30000 kPa, m1 = 0.437) was 0.5024 ± 0.0083 mPa·s and the viscosity (348.15 K, 30000 kPa, m1 = 2.291) was 1.536 ± 0.025 mPa·s. The viscosity (348.2 K, 100 kPa, m1 = 1.824) was 1.127 ± 0.018 mPa·s, the viscosity (348.2 K, 10000 kPa, m1 = 1.824) was 1.135 ± 0.018 mPa·s and the viscosity (348.2 K, 30000 kPa, m1 = 1.824) was 1.151 ± 0.019 mPa·s. For the same molecule, the mass density (348.23 K, 2118 kPa, m1 = 2.224) was 1208.2 ± 0.8 kg/m3, the mass density (348.23 K, 8002 kPa, m1 = 2.224) was 1210.4 ± 0.8 kg/m3 and the mass density (348.23 K, 14710 kPa, m1 = 2.224) was 1212.2 ± 0.8 kg/m3. The mass density (348.23 K, 25300 kPa, m1 = 2.224) was 1215.7 ± 0.8 kg/m3, the mass density (348.23 K, 30020 kPa, m1 = 2.224) was 1217.1 ± 0.9 kg/m3 and the viscosity (348.25 K, 100 kPa, m1 = 0.255) was 0.4399 ± 0.0073 mPa·s. It also gave a viscosity (348.25 K, 10000 kPa, m1 = 0.255) of 0.4432 ± 0.0073 mPa·s, a viscosity (348.25 K, 30000 kPa, m1 = 0.255) of 0.4502 ± 0.0075 mPa·s and a viscosity (348.32 K, 100 kPa, m1 = 0.085) of 0.3976 ± 0.0066 mPa·s. It also gave a viscosity (348.32 K, 10000 kPa, m1 = 0.085) of 0.4008 ± 0.0067 mPa·s, a viscosity (348.32 K, 30000 kPa, m1 = 0.085) of 0.4066 ± 0.0068 mPa·s and a viscosity (348.35 K, 100 kPa, m1 = 2.623) of 1.849 ± 0.03 mPa·s. For the same molecule, the viscosity (348.35 K, 10000 kPa, m1 = 2.623) was 1.863 ± 0.03 mPa·s, the viscosity (348.35 K, 30000 kPa, m1 = 2.623) was 1.889 ± 0.03 mPa·s and the viscosity (348.36 K, 100 kPa, m1 = 0.722) was 0.5831 ± 0.0096 mPa·s. The viscosity (348.36 K, 10000 kPa, m1 = 0.722) was 0.5875 ± 0.0096 mPa·s, the viscosity (348.36 K, 30000 kPa, m1 = 0.722) was 0.5961 ± 0.0098 mPa·s and the viscosity (348.75 K, 100 kPa, m1 = 0.923) was 0.6495 ± 0.011 mPa·s. For the same molecule, the viscosity (348.75 K, 10000 kPa, m1 = 0.923) was 0.6548 ± 0.011 mPa·s, the viscosity (348.75 K, 30000 kPa, m1 = 0.923) was 0.6642 ± 0.011 mPa·s and the mass density (358.95 K, 101 kPa, m1 = 2.224) was 1200.88 ± 0.75 kg/m3. It also gave a mass density (358.95 K, 101 kPa, m1 = 2.535) of 1228.61 ± 0.77 kg/m3, a viscosity (370.1 K, 100 kPa, m1 = 2.291) of 1.068 ± 0.017 mPa·s and a viscosity (370.1 K, 10000 kPa, m1 = 2.291) of 1.078 ± 0.017 mPa·s. For the same molecule, the viscosity (370.1 K, 30000 kPa, m1 = 2.291) was 1.099 ± 0.018 mPa·s, the viscosity (370.4 K, 100 kPa, m1 = 0.923) was 0.4894 ± 0.0081 mPa·s and the viscosity (370.4 K, 10000 kPa, m1 = 0.923) was 0.4945 ± 0.0082 mPa·s. The viscosity (370.4 K, 30000 kPa, m1 = 0.923) was 0.5035 ± 0.0083 mPa·s, the viscosity (370.45 K, 100 kPa, m1 = 0.085) was 0.3053 ± 0.0051 mPa·s and the viscosity (370.45 K, 100 kPa, m1 = 0.722) was 0.4386 ± 0.0073 mPa·s. It also gave a viscosity (370.45 K, 10000 kPa, m1 = 0.085) of 0.3084 ± 0.0052 mPa·s, a viscosity (370.45 K, 10000 kPa, m1 = 0.722) of 0.4433 ± 0.0073 mPa·s and a viscosity (370.45 K, 30000 kPa, m1 = 0.085) of 0.3144 ± 0.0053 mPa·s. It also gave a viscosity (370.45 K, 30000 kPa, m1 = 0.722) of 0.4516 ± 0.0075 mPa·s, a viscosity (370.75 K, 100 kPa, m1 = 2.623) of 1.295 ± 0.021 mPa·s and a viscosity (370.75 K, 10000 kPa, m1 = 2.623) of 1.308 ± 0.021 mPa·s. The viscosity (370.75 K, 30000 kPa, m1 = 2.623) was 1.333 ± 0.022 mPa·s, the viscosity (371.44 K, 100 kPa, m1 = 1.824) was 0.804 ± 0.013 mPa·s and the viscosity (371.44 K, 10000 kPa, m1 = 1.824) was 0.811 ± 0.013 mPa·s. It also gave a viscosity (371.44 K, 30000 kPa, m1 = 1.824) of 0.827 ± 0.013 mPa·s, a viscosity (371.9 K, 100 kPa, m1 = 0.437) of 0.3654 ± 0.0061 mPa·s and a viscosity (371.9 K, 10000 kPa, m1 = 0.437) of 0.3694 ± 0.0062 mPa·s. The viscosity (371.9 K, 30000 kPa, m1 = 0.437) was 0.3766 ± 0.0063 mPa·s, the viscosity (372.4 K, 100 kPa, m1 = 0.255) was 0.33 ± 0.0055 mPa·s and the viscosity (372.4 K, 10000 kPa, m1 = 0.255) was 0.3336 ± 0.0056 mPa·s. For the same molecule, the viscosity (372.4 K, 30000 kPa, m1 = 0.255) was 0.34 ± 0.0057 mPa·s, the mass density (373.22 K, 3020 kPa, m1 = 2.535) was 1220.3 ± 0.8 kg/m3 and the mass density (373.22 K, 6610 kPa, m1 = 2.535) was 1221.6 ± 0.8 kg/m3. The mass density (373.22 K, 14380 kPa, m1 = 2.535) was 1224.1 ± 0.8 kg/m3, the mass density (373.22 K, 21080 kPa, m1 = 2.535) was 1226.1 ± 0.9 kg/m3 and the mass density (373.22 K, 24710 kPa, m1 = 2.535) was 1227.4 ± 0.9 kg/m3. For the same molecule, the mass density (373.22 K, 29800 kPa, m1 = 2.535) was 1229 ± 0.9 kg/m3, the mass density (373.24 K, 2275 kPa, m1 = 2.224) was 1192.8 ± 0.8 kg/m3 and the mass density (373.24 K, 7355 kPa, m1 = 2.224) was 1194.5 ± 0.8 kg/m3. For the same molecule, the mass density (373.24 K, 12870 kPa, m1 = 2.224) was 1196.4 ± 0.8 kg/m3, the mass density (373.24 K, 20420 kPa, m1 = 2.224) was 1198.9 ± 0.8 kg/m3 and the mass density (373.24 K, 29820 kPa, m1 = 2.224) was 1201.7 ± 0.9 kg/m3. The viscosity (394.16 K, 10000 kPa, m1 = 2.623) was 0.963 ± 0.016 mPa·s, the viscosity (394.16 K, 30000 kPa, m1 = 2.623) was 0.985 ± 0.016 mPa·s and the viscosity (396.25 K, 10000 kPa, m1 = 0.923) was 0.377 ± 0.0063 mPa·s. For the same molecule, the viscosity (396.25 K, 30000 kPa, m1 = 0.923) was 0.3862 ± 0.0064 mPa·s, the viscosity (397.1 K, 10000 kPa, m1 = 1.824) was 0.605 ± 0.0099 mPa·s and the viscosity (397.1 K, 30000 kPa, m1 = 1.824) was 0.619 ± 0.01 mPa·s. It also gave a viscosity (397.14 K, 10000 kPa, m1 = 0.085) of 0.2381 ± 0.0041 mPa·s, a viscosity (397.14 K, 30000 kPa, m1 = 0.085) of 0.2437 ± 0.0042 mPa·s and a mass density (398.15 K, 5810 kPa, m1 = 2.535) of 1203.8 ± 0.8 kg/m3. It also gave a mass density (398.15 K, 11100 kPa, m1 = 2.535) of 1205.6 ± 0.8 kg/m3, a mass density (398.15 K, 21700 kPa, m1 = 2.535) of 1209 ± 0.9 kg/m3 and a mass density (398.15 K, 29400 kPa, m1 = 2.535) of 1211.5 ± 0.9 kg/m3. For the same molecule, the mass density (398.19 K, 2452 kPa, m1 = 2.224) was 1175.3 ± 0.8 kg/m3, the mass density (398.19 K, 7355 kPa, m1 = 2.224) was 1177.2 ± 0.8 kg/m3 and the mass density (398.19 K, 12080 kPa, m1 = 2.224) was 1178.9 ± 0.8 kg/m3. For the same molecule, the mass density (398.19 K, 19850 kPa, m1 = 2.224) was 1181.7 ± 0.8 kg/m3, the mass density (398.19 K, 26220 kPa, m1 = 2.224) was 1183.8 ± 0.9 kg/m3 and the viscosity (398.7 K, 10000 kPa, m1 = 2.291) was 0.774 ± 0.013 mPa·s. It also gave a viscosity (398.7 K, 30000 kPa, m1 = 2.291) of 0.792 ± 0.013 mPa·s, a viscosity (398.75 K, 10000 kPa, m1 = 0.437) of 0.2834 ± 0.0048 mPa·s and a viscosity (398.75 K, 30000 kPa, m1 = 0.437) of 0.2901 ± 0.0049 mPa·s. It also gave a viscosity (399.24 K, 10000 kPa, m1 = 0.722) of 0.3306 ± 0.0055 mPa·s, a viscosity (399.24 K, 30000 kPa, m1 = 0.722) of 0.3384 ± 0.0057 mPa·s and a viscosity (399.44 K, 10000 kPa, m1 = 0.255) of 0.2566 ± 0.0044 mPa·s. The viscosity (399.44 K, 30000 kPa, m1 = 0.255) was 0.2625 ± 0.0045 mPa·s, the viscosity (422.1 K, 10000 kPa, m1 = 1.824) was 0.477 ± 0.0079 mPa·s and the viscosity (422.1 K, 30000 kPa, m1 = 1.824) was 0.49 ± 0.0081 mPa·s. It also gave a viscosity (422.35 K, 10000 kPa, m1 = 0.923) of 0.3 ± 0.0051 mPa·s, a viscosity (422.35 K, 30000 kPa, m1 = 0.923) of 0.3081 ± 0.0052 mPa·s and a viscosity (422.7 K, 10000 kPa, m1 = 0.085) of 0.1945 ± 0.0034 mPa·s. It also gave a viscosity (422.7 K, 30000 kPa, m1 = 0.085) of 0.1999 ± 0.0035 mPa·s, a viscosity (423.85 K, 10000 kPa, m1 = 0.255) of 0.2113 ± 0.0037 mPa·s and a viscosity (423.85 K, 30000 kPa, m1 = 0.255) of 0.2169 ± 0.0037 mPa·s. The viscosity (424.13 K, 10000 kPa, m1 = 0.437) was 0.23 ± 0.004 mPa·s, the viscosity (424.13 K, 30000 kPa, m1 = 0.437) was 0.2366 ± 0.0041 mPa·s and the viscosity (428.16 K, 10000 kPa, m1 = 0.722) was 0.2597 ± 0.0044 mPa·s. For the same molecule, the viscosity (428.16 K, 30000 kPa, m1 = 0.722) was 0.2673 ± 0.0045 mPa·s, the viscosity (447.16 K, 10000 kPa, m1 = 0.255) was 0.1798 ± 0.0032 mPa·s and the viscosity (447.16 K, 30000 kPa, m1 = 0.255) was 0.1855 ± 0.0033 mPa·s. It also gave a viscosity (447.42 K, 10000 kPa, m1 = 0.437) of 0.1966 ± 0.0034 mPa·s, a viscosity (447.42 K, 30000 kPa, m1 = 0.437) of 0.2019 ± 0.0035 mPa·s and a viscosity (448.24 K, 10000 kPa, m1 = 0.085) of 0.1643 ± 0.0029 mPa·s. The viscosity (448.24 K, 30000 kPa, m1 = 0.085) was 0.1694 ± 0.003 mPa·s.
